Reference: PubChem BioAssay (NCI)
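Where inhibition never reached the appropriate level, the endpoint shown equals the highest concentration tested. Otherwise, values were interpolated linearly from a five-concentration, 48-hour dose response in 96-well plates. TGI marks complete inhibition of growth.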

Columns and labels:
Assay in all cases: NCI tumour cell line growth inhibition, 48 h
A498 renal = tested on: A498 renal
SK-MEL-5 melanoma = tested on: SK-MEL-5 melanoma
LOX IMVI melanoma = tested on: LOX IMVI melanoma
NCI-H23 lung = tested on: NCI-H23 lung
KM12 colon = tested on: KM12 colon
A549 NSCLC = tested on: A549 NSCLC
T-47D breast = tested on: T-47D breast
UACC-257 melanoma = tested on: UACC-257 melanoma
RPMI-8226 leukemia = tested on: RPMI-8226 leukemia
MOLT-4 leukemia = tested on: MOLT-4 leukemia
OVCAR-3 ovarian = tested on: OVCAR-3 ovarian
SF-295 CNS = tested on: SF-295 CNS
NCI-H460 lung = tested on: NCI-H460 lung
PC-3 prostate = tested on: PC-3 prostate
K-562 leukemia = tested on: K-562 leukemia
HOP-62 NSCLC = tested on: HOP-62 NSCLC
MCF7 breast = tested on: MCF7 breast
M14 melanoma = tested on: M14 melanoma
SF-268 CNS = tested on: SF-268 CNS
COLO 205 colon = tested on: COLO 205 colon
SK-MEL-2 melanoma = tested on: SK-MEL-2 melanoma
SR leukemia = tested on: SR leukemia
CAKI-1 renal = tested on: CAKI-1 renal
U251 CNS = tested on: U251 CNS
HL-60(TB) leukemia = tested on: HL-60(TB) leukemia
OVCAR-4 ovarian = tested on: OVCAR-4 ovarian
UACC-62 melanoma = tested on: UACC-62 melanoma
IGROV1 ovarian = tested on: IGROV1 ovarian
OVCAR-5 ovarian = tested on: OVCAR-5 ovarian
HCT-116 colon = tested on: HCT-116 colon
HCC-2998 colon = tested on: HCC-2998 colon
SNB-19 CNS = tested on: SNB-19 CNS
HCT-15 colon = tested on: HCT-15 colon
786-0 renal = tested on: 786-0 renal
SK-MEL-28 melanoma = tested on: SK-MEL-28 melanoma
NCI/ADR-RES ovarian = tested on: NCI/ADR-RES ovarian
SK-OV-3 ovarian = tested on: SK-OV-3 ovarian
NCI-H226 lung = tested on: NCI-H226 lung
HT29 colon = tested on: HT29 colon
ACHN renal = tested on: ACHN renal
SW-620 colon = tested on: SW-620 colon
MDA-N = tested on: MDA-N
HOP-92 NSCLC = tested on: HOP-92 NSCLC
UO-31 renal = tested on: UO-31 renal
RXF 393 renal = tested on: RXF 393 renal
HS 578T breast = tested on: HS 578T breast
EKVX NSCLC = tested on: EKVX NSCLC
DU-145 prostate = tested on: DU-145 prostate
CCRF-CEM leukemia = tested on: CCRF-CEM leukemia
MDA-MB-435 = tested on: MDA-MB-435
SN12C renal = tested on: SN12C renal
OVCAR-8 ovarian = tested on: OVCAR-8 ovarian
NCI-H522 lung = tested on: NCI-H522 lung
MALME-3M melanoma = tested on: MALME-3M melanoma
MDA-MB-231 breast = tested on: MDA-MB-231 breast
SF-539 CNS = tested on: SF-539 CNS
SNB-75 CNS = tested on: SNB-75 CNS
TK-10 renal = tested on: TK-10 renal

Measured: TGI

c1cc(NC2=NCCO2)c2c(c1)OCO2
> 100 µM: A498 renal | SK-MEL-5 melanoma | LOX IMVI melanoma | NCI-H23 lung | KM12 colon | A549 NSCLC | T-47D breast | UACC-257 melanoma | RPMI-8226 leukemia | MOLT-4 leukemia | OVCAR-3 ovarian | SF-295 CNS | NCI-H460 lung | PC-3 prostate | K-562 leukemia | HOP-62 NSCLC | MCF7 breast | M14 melanoma | SF-268 CNS | COLO 205 colon | SK-MEL-2 melanoma | SR leukemia | CAKI-1 renal | U251 CNS | HL-60(TB) leukemia | OVCAR-4 ovarian | UACC-62 melanoma | IGROV1 ovarian | OVCAR-5 ovarian | HCT-116 colon | HCC-2998 colon | SNB-19 CNS | HCT-15 colon | 786-0 renal | SK-MEL-28 melanoma | NCI/ADR-RES ovarian | SK-OV-3 ovarian | NCI-H226 lung | HT29 colon | ACHN renal | SW-620 colon | MDA-N | HOP-92 NSCLC | UO-31 renal | RXF 393 renal | HS 578T breast | EKVX NSCLC | DU-145 prostate | CCRF-CEM leukemia | MDA-MB-435 | SN12C renal | OVCAR-8 ovarian | NCI-H522 lung | MALME-3M melanoma | MDA-MB-231 breast | SF-539 CNS

COC(=O)[C@@H]1OC(C)(c2ccccc2)O[C@H]1C(=O)OC
> 100 µM: A498 renal | SK-MEL-5 melanoma | LOX IMVI melanoma | NCI-H23 lung | KM12 colon | A549 NSCLC | T-47D breast | UACC-257 melanoma | RPMI-8226 leukemia | MOLT-4 leukemia | OVCAR-3 ovarian | SF-295 CNS | NCI-H460 lung | PC-3 prostate | K-562 leukemia | HOP-62 NSCLC | MCF7 breast | M14 melanoma | SF-268 CNS | COLO 205 colon | SK-MEL-2 melanoma | SR leukemia | CAKI-1 renal | SNB-75 CNS | U251 CNS | HL-60(TB) leukemia | OVCAR-4 ovarian | UACC-62 melanoma | IGROV1 ovarian | OVCAR-5 ovarian | HCC-2998 colon | TK-10 renal | SNB-19 CNS | HCT-15 colon | 786-0 renal | SK-MEL-28 melanoma | NCI/ADR-RES ovarian | SK-OV-3 ovarian | NCI-H226 lung | HT29 colon | ACHN renal | SW-620 colon | MDA-N | HOP-92 NSCLC | UO-31 renal | RXF 393 renal | HS 578T breast | EKVX NSCLC | DU-145 prostate | CCRF-CEM leukemia | MDA-MB-435 | OVCAR-8 ovarian | NCI-H522 lung | MALME-3M melanoma | MDA-MB-231 breast | SF-539 CNS
